Data: patent US6358885B1, “Substituted phenylheterocyclic herbicides” (Mississippi State University, priority 1992, dated 2002)

Key:
[1] = test system: velvetleaf; test: Test C preemergence/postemergence greenhouse plant response rating 0 to 100; assay type: in vivo, Abutilon theophrasti; conditions: POSTEMERGENCE; for Plant response rating, Velvetleaf: 0 to 100 scale
Summary of the method: (§1)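 Compounds in non-phytotoxic solvent applied preemergence to sandy loam one day after planting, postemergence at the 1–4 leaf stage, or to ~2.5 cm floodwater over silt loam.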

[2] = test system: rice; test: Test C flood test plant response rating 0 to 100; assay type: in vivo, Oryza sativa; conditions: for Plant response rating Rice Japonica: flood test species listed under POSTEMERGENCE, 0 to 100 scale
Summary of the method: as §1

[3] = test system: giant foxtail; test: Test B preemergence/postemergence greenhouse plant response rating 0 to 10; assay type: in vivo, Setaria faberii; conditions: 0 to 10 scale
Summary of the method: (§2)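 Test chemicals, dissolved in a non-phytotoxic solvent, were applied to soil at planting and, at the same time, over foliage of seedlings at the one to four leaf stage.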

[4] = test system: barnyardgrass; test: as above; assay type: in vivo, Echinochloa crus-galli; conditions: 0 to 10 scale
Summary of the method: as §2

[5] = test system: wild oat; test: Test C preemergence/postemergence greenhouse plant response rating 0 to 100; assay type: in vivo, Avena fatua; conditions: POSTEMERGENCE; for Plant response rating, Wild oat: 0 to 100 scale
Summary of the method: as §1

[6] = test system: velvetleaf; test: Test B preemergence/postemergence greenhouse plant response rating 0 to 10; assay type: in vivo, Abutilon theophrasti; conditions: 0 to 10 scale
Summary of the method: as §2

[7] = test system: sorghum; test: Test C preemergence/postemergence greenhouse plant response rating 0 to 100; assay type: in vivo, Sorghum bicolor; conditions: POSTEMERGENCE; for Plant response rating, Sorghum: 0 to 100 scale
Summary of the method: as §1

[8] = test system: sugar beet; test: Test B preemergence/postemergence greenhouse plant response rating 0 to 10; assay type: in vivo, Beta vulgaris; conditions: 0 to 10 scale
Summary of the method: as §2

[9] = test system: crabgrass; test: Test C preemergence/postemergence greenhouse plant response rating 0 to 100; assay type: in vivo, Digitaria sanguinalis; conditions: POSTEMERGENCE; for Plant response rating, Crabgrass: 0 to 100 scale
Summary of the method: as §1

[10] = test system: cotton; test: as above; assay type: in vivo, Gossypium hirsutum; conditions: POSTEMERGENCE; for Plant response rating, Cotton: 0 to 100 scale
Summary of the method: as §1

[11] = test system: pigweed; test: as above; assay type: in vivo, Amaranthusretroflexus; conditions: POSTEMERGENCE; for Plant response rating Pigweed: 0 to 100 scale
Summary of the method: as §1

[12] = test system: lambsquarters; test: Test B preemergence/postemergence greenhouse plant response rating 0 to 10; assay type: in vivo, Chenopodium album; conditions: 0 to 10 scale
Summary of the method: as §2

[13] = Rate 16 g/ha, under POSTEMERGENCE head (flood test species)

SMILES: CC(C)OC(=O)c1cc(-c2nn3c(c2Cl)CCCC3)c(F)cc1Cl [Compound 44]
- Plant response rating, Velvetleaf ([1]; 62 g/ha): 100
- Plant response rating, Velvetleaf ([1]; 250 g/ha): 100
- Plant response rating (0 to 100), Velvetleaf ([1]; Rate 4 g/ha): 80
- Plant response rating (0 to 100), Velvetleaf ([1]; Rate 16 g/ha): 90
- Plant response rating (0 to 100), Rice Japonica ([2]; POSTEMERGENCE section, flood test, Rate 4 g/ha): 10
- Plant response rating (0 to 100), Rice Japonica [2, 13]: 30
- Plant response rating Rice Japonica ([2]; 62 g/ha): 60
- Plant response rating Rice Japonica ([2]; 250 g/ha): 85
- Plant response rating, Giant foxtail ([3]; POSTEMERGENCE, Rate 50 g/ha): 6
- Plant response rating, Giant foxtail ([3]; PREEMERGENCE, Rate 50 g/ha): 7
- Plant response rating, Giant foxtail ([3]; Rate 200 g/ha, POSTEMERGENCE): 9
- Plant response rating, Giant foxtail ([3]; Rate 200 g/ha, PREEMERGENCE): 8
- Plant response rating, Barnyardgrass ([4]; POSTEMERGENCE, Rate 50 g/ha): 8
- Plant response rating, Barnyardgrass ([4]; POSTEMERGENCE, Rate 200 g/ha): 10
- Plant response rating, Barnyardgrass ([4]; PREEMERGENCE, Rate 50 g/ha): 5
- Plant response rating, Barnyardgrass ([4]; Rate 200 g/ha, PREEMERGENCE): 8
- Plant response rating, Wild oat ([5]; 62 g/ha): 50
- Plant response rating, Wild oat ([5]; 250 g/ha): 60
- Plant response rating (0 to 100), Wild oat ([5]; Rate 4 g/ha): 20
- Plant response rating (0 to 100), Wild oat ([5]; Rate 16 g/ha): 30
- Plant response rating, Velvetleaf ([6]; POSTEMERGENCE, Rate 50 g/ha): 9
- Plant response rating, Velvetleaf ([6]; PREEMERGENCE, Rate 50 g/ha): 4
- Plant response rating, Velvetleaf ([6]; Rate 200 g/ha, POSTEMERGENCE): 10
- Plant response rating, Velvetleaf ([6]; Rate 200 g/ha, PREEMERGENCE): 8
- Plant response rating, Sorghum ([7]; 62 g/ha): 60
- Plant response rating, Sorghum ([7]; 250 g/ha): 100
- Plant response rating (0 to 100), Sorghum ([7]; Rate 4 g/ha): 30
- Plant response rating (0 to 100), Sorghum ([7]; Rate 16 g/ha): 40
- Plant response rating, Sugar beet ([8]; POSTEMERGENCE, Rate 50 g/ha): 10
- Plant response rating, Sugar beet ([8]; PREEMERGENCE, Rate 50 g/ha): 10
- Plant response rating, Sugar beet ([8]; Rate 200 g/ha, POSTEMERGENCE): 10
- Plant response rating, Sugar beet ([8]; Rate 200 g/ha, PREEMERGENCE): 10
- Plant response rating, Crabgrass ([9]; 62 g/ha): 40
- Plant response rating, Crabgrass ([9]; 250 g/ha): 50
- Plant response rating (0 to 100), Crabgrass ([9]; Rate 4 g/ha): 20
- Plant response rating (0 to 100), Crabgrass ([9]; Rate 16 g/ha): 30
- Plant response rating, Cotton ([10]; 62 g/ha): 100
- Plant response rating, Cotton ([10]; 250 g/ha): 100
- Plant response rating (0 to 100), Cotton ([10]; Rate 4 g/ha): 90
- Plant response rating (0 to 100), Cotton ([10]; Rate 16 g/ha): 100
- Plant response rating Pigweed ([11]; 62 g/ha): 100
- Plant response rating Pigweed ([11]; 250 g/ha): 100
- Plant response rating (0 to 100), Pigweed ([11]; Rate 4 g/ha): 90
- Plant response rating (0 to 100), Pigweed ([11]; Rate 16 g/ha): 100
- Plant response rating, Lambsquarter ([12]; POSTEMERGENCE, Rate 50 g/ha): 10
- Plant response rating, Lambsquarter ([12]; PREEMERGENCE, Rate 50 g/ha): 10
- Plant response rating, Lambsquarter ([12]; Rate 200 g/ha, POSTEMERGENCE): 10
- Plant response rating, Lambsquarter ([12]; Rate 200 g/ha, PREEMERGENCE): 10

SMILES: C=CCN1C(=O)COc2cc(F)c(-c3nn4c(c3Br)CCCC4)cc21 [Compound 41]
- Plant response rating, Velvetleaf ([1]; 62 g/ha): 100
- Plant response rating, Velvetleaf ([1]; 125 g/ha): 100
- Plant response rating (0 to 100), Velvetleaf ([1]; Rate 16 g/ha): 100
- Plant response rating (0 to 100), Velvetleaf ([1]; Rate 31 g/ha): 100
- Plant response rating (0 to 100), Rice Japonica [2, 13]: 45
- Plant response rating (0 to 100), Rice Japonica ([2]; Rate 31 g/ha, under POSTEMERGENCE head (flood test species)): 65
- Plant response rating Rice Japonica ([2]; 62 g/ha): 80
- Plant response rating Rice Japonica ([2]; 125 g/ha): 85
- Plant response rating, Giant foxtail ([3]; POSTEMERGENCE, Rate 50 g/ha): 4
- Plant response rating, Giant foxtail ([3]; PREEMERGENCE, Rate 50 g/ha): 1
- Plant response rating, Giant foxtail ([3]; Rate 200 g/ha, POSTEMERGENCE): 5
- Plant response rating, Giant foxtail ([3]; Rate 200 g/ha, PREEMERGENCE): 3
- Plant response rating, Barnyardgrass ([4]; POSTEMERGENCE, Rate 50 g/ha): 3
- Plant response rating, Barnyardgrass ([4]; POSTEMERGENCE, Rate 200 g/ha): 6
- Plant response rating, Barnyardgrass ([4]; PREEMERGENCE, Rate 50 g/ha): 4
- Plant response rating, Barnyardgrass ([4]; Rate 200 g/ha, PREEMERGENCE): 6
- Plant response rating, Wild oat ([5]; 62 g/ha): 40
- Plant response rating, Wild oat ([5]; 125 g/ha): 50
- Plant response rating (0 to 100), Wild oat ([5]; Rate 16 g/ha): 20
- Plant response rating (0 to 100), Wild oat ([5]; Rate 31 g/ha): 30
- Plant response rating, Velvetleaf ([6]; POSTEMERGENCE, Rate 50 g/ha): 10
- Plant response rating, Velvetleaf ([6]; PREEMERGENCE, Rate 50 g/ha): 2
- Plant response rating, Velvetleaf ([6]; Rate 200 g/ha, POSTEMERGENCE): 10
- Plant response rating, Velvetleaf ([6]; Rate 200 g/ha, PREEMERGENCE): 10
- Plant response rating, Sorghum ([7]; 62 g/ha): 40
- Plant response rating, Sorghum ([7]; 125 g/ha): 50
- Plant response rating (0 to 100), Sorghum ([7]; Rate 16 g/ha): 20
- Plant response rating (0 to 100), Sorghum ([7]; Rate 31 g/ha): 30
- Plant response rating, Sugar beet ([8]; POSTEMERGENCE, Rate 50 g/ha): 10
- Plant response rating, Sugar beet ([8]; PREEMERGENCE, Rate 50 g/ha): 10
- Plant response rating, Sugar beet ([8]; Rate 200 g/ha, POSTEMERGENCE): 10
- Plant response rating, Sugar beet ([8]; Rate 200 g/ha, PREEMERGENCE): 10
- Plant response rating, Crabgrass ([9]; 62 g/ha): 20
- Plant response rating, Crabgrass ([9]; 125 g/ha): 30
- Plant response rating (0 to 100), Crabgrass ([9]; Rate 16 g/ha): 10
- Plant response rating (0 to 100), Crabgrass ([9]; Rate 31 g/ha): 10
- Plant response rating, Cotton ([10]; 62 g/ha): 100
- Plant response rating, Cotton ([10]; 125 g/ha): 100
- Plant response rating (0 to 100), Cotton ([10]; Rate 16 g/ha): 100
- Plant response rating (0 to 100), Cotton ([10]; Rate 31 g/ha): 100
- Plant response rating Pigweed ([11]; 62 g/ha): 100
- Plant response rating Pigweed ([11]; 125 g/ha): 100
- Plant response rating (0 to 100), Pigweed ([11]; Rate 16 g/ha): 90
- Plant response rating (0 to 100), Pigweed ([11]; Rate 31 g/ha): 100
- Plant response rating, Lambsquarter ([12]; POSTEMERGENCE, Rate 50 g/ha): 10
- Plant response rating, Lambsquarter ([12]; PREEMERGENCE, Rate 50 g/ha): 10
- Plant response rating, Lambsquarter ([12]; Rate 200 g/ha, POSTEMERGENCE): 10
- Plant response rating, Lambsquarter ([12]; Rate 200 g/ha, PREEMERGENCE): 10
